Values quoted from earlier work in article PMC4468036 (Bioorganic & medicinal chemistry, 2014).
pIC50: −log10 of the molar value.

Columns and labels:
δ receptor = conditions: read-out: IC50 at δ receptor; selectivity of ML140
μ receptor = conditions: read-out: IC50 at μ receptor; selectivity of ML140

- pIC50 (δ receptor): < 4.49
- pIC50 (μ receptor): < 4.62
SMILES: Cc1ccc(S(=O)(=O)NCc2ccc(C(=O)NCCN(Cc3ccccc3)C(C)C)cc2)cc1 [ML140]
